In patent US20220332750A1, “ADENOSINE COMPOUND, ITS PHARMACEUTICALLY ACCEPTABLE SALT OR ITS STEREOISOMER AND USE THEREOF” (ACADEMY OF MILITARY MEDICAL SCIENCES, priority 2019, published 2022):

Assays:
[1] = target: T1, (human) A2A adenosine receptor (Homo sapiens, UniProt P29274); assay: Radioligand binding test ([3H]-CGS21680 displacement); settings: for Ki: calculated from IC50 by Cheng-Prusoff equation, [S] 25 nM, Km 22 nM; for IC50: hA2A HEK-293 cell membrane, [3H]-CGS21680 25 nM, 25° C. 90 minutes
T1 construct: purchased PerkinElmer Research Products (Boston, Mass.); host or cells: HEK-293 cell membranes, stably transfected
Description: [3H]-CGS21680 (2-[p-(2-carboxyethyl)phenylethylamino]-5′-N-ethylcarboxamido-adenosine, [carboxy-1-ethyl-3H(N)]—; 250 μCi): purchased from PerkinElmer Research Products (Boston, Mass.);
The cell membrane stably transfected with (human) A2A adenosine receptor was prepared in HEK-293 cells, and the cell membrane was obtained from PerkinElmer Research Products (Boston, Mass.);
CGS 21680 (2-[p-(2-carboxyethyl)phenylethylamino]-5′-N-ethylcarboxamidoadenosine) was purchased from Selleck (Shanghai, CN);
The A2A adenosine receptors used were all expressed in the cell membrane. Each compound was continuously diluted 3 times with DMSO (Solarbio, D8371-250 ml) to generate compound source plates with 10 different concentrations (10 μM, 3.3 μM, 1.1 μM, 0.37 μM, 0.12 μM, 0.0412 μM, 0.0137 μM, 0.0046 μM, 0.0015 μM, 0.0005 μM), 250 nL of compounds were added to 384-well Opti-plate, sealed with parafilm; 1 mL of assay buffer (containing 50 mM Tris-HCl, pH 7.4, 10 mM MgCl2, 1 mM EDTA, 1 μg/mL adenosine deaminase) was added to 20 U hA2A HEK-293 cell membrane for dilution, 0.75 μCi [3H]-CGS21680 (final 25 nM) was added to the diluted cell membrane and mixed well; 50 μL of the prepared cell membrane dilution was transferred to the 384-well Opti-plate containing fresh compounds and incubated at 25° C. for 90 minutes; 100 μL of 0.5% polyethyleneimine solution (PEI) was added to UNIFILTER-96 GF/B filter plate, and soaked at 4° C. for 90 minutes, then the UNIFILTER-96 GF/B filter plate was washed twice with 500 μL of washing buffer per well (washing buffer contained 50 mM Tris-HCl pH 7.4, 154 mM NaCl) which was transferred by Cell Harvester; then, the mixture system in the Opti-plate was transferred to the cleaned UNIFILTER-96 GF/B filter plate, and then the UNIFILTER-96 GF/B filter plate was washed 9 times with 500 μL of washing buffer per well (washing buffer contained 50 mM Tris-HCl, pH 7.4, 154 mM NaCl), and incubated for 3 minutes in a 37° C. incubator; 40 μL of ULTIMA GOLD scintillation fluid (Perkin Elmer, Cat #77-16061) was added to each well, MicroBeta liquid scintillation counter (PerkinElmer) was used to read CPM (count per minute) value. The specific binding percentage of [3H]CGS21680 was calculated according to the CPM value, % specific binding of [3H]CGS21680=(CPMsample−CPMLow Control)/(CPMHigh Control−CPMLow Control)*100, wherein High Control was 0.5% DMSO, Low Control was 100 μM CGS21680. According to the compound concentration and the specific binding percentage of [3H]CGS21680, curve fitting was performed to calculate IC50 value.
The binding inhibition constant (Ki) value was calculated from the IC50 value according to the Cheng-Prusoff equation, Ki=IC50/(1+[S]/Km), wherein [S] was radioligand concentration (25 nM), and Km was human A2AAR dissociation constant of [3H]CGS21680 (22 nM).

[2] = target: human adenosine receptor A2A (hADORA2A-HEK293 cells) (Homo sapiens, UniProt P29274); assay: cAMP test of A2A adenosine receptor; format: cell-based; settings: LANCE Ultra cAMP kit
Source text: DMEM/F12, G418, Penicillin-Streptomycin, Versene solution, HEPES, Hank's buffer saline aqueous solution, PBS (pH 7.4, 1×, sterile), FBS, 7.5% BSA stabilizer, Rolipram, NECA, were purchased from Gibico, Hyclone and Sigma, respectively;
LANCE® Ultra cAMP kit (containing Eu-cAMP tracer, Ulight-anti-cAMP reagent, cAMP detection buffer) and hADORA2A-HEK293 cells were purchased from PerkinElmer Research Products (Boston, Mass.);
The cells stably expressing human adenosine receptor A2A (hADORA2A-HEK293 cells) were cultured in DMEM/F12 medium containing 10% FBS, 1× Penicillin-Streptomycin and 400 μg/ml G418 in the environment of 37° C. and 5% CO2. Before the experiment, the cells were digested with Versene solution. […] EnVison microplate reader (EnVision multimode plate reader, PerkinElmer) was used to determine the level of cyclic adenosine monophosphate in the final solution (λex=320 nm, λem=665 nm & 615 nm). The EC50 (nM) value that stimulated the production level of cyclic adenosine monophosphate when the test compound interacted with the A2A adenosine receptor was calculated. The A2A receptor agonist titer of the compound was expressed as the EC50 (nM) value that stimulated the production level of cyclic adenosine monophosphate when the compound interacted with the A2A adenosine receptor. […]

T1 sequence (P29274 whole entry): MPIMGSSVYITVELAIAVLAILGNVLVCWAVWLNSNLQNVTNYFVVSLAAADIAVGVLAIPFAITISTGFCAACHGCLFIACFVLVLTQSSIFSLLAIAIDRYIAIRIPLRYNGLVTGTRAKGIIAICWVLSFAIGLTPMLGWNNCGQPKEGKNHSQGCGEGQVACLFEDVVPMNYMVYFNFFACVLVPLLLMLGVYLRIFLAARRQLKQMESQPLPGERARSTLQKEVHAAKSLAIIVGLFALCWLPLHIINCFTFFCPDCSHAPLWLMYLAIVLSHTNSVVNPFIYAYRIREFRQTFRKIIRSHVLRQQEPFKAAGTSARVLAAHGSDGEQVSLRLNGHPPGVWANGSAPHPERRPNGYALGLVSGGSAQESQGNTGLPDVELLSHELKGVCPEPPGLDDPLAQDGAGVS
Sequence of human adenosine receptor A2A (hADORA2A-HEK293 cells) (P29274 whole entry): as above

Structure (SMILES) | Ki [1] [µM] | IC50 [1] [µM] | melting point [°C] | EC50 [2] [µM]
Nc1nc(-c2ccc(NC(=O)NC3CC3)cc2)nc2c1ncn2[C@@H]1O[C@H](CO)[C@@H](O)[C@H]1O [Compound 3, 1-{4-{6-amino-9-[(2R,3R,4S,5R)-3,4-dihydroxy-5-(hydroxymethyl)tetrahydrofuran-2-yl]-9H-purin-2-yl}phenyl}-3-cyclopropylurea] | 0.0159 | 0.034 | 174 | –
Nc1nc(-c2ccc(NC(=O)Nc3ccc(CO)cc3)cc2)nc2c1ncn2[C@@H]1O[C@H](CO)[C@@H](O)[C@H]1O [Compound 2, 1-{4-{6-amino-9-[(2R,3R,4S,5R)-3,4-dihydroxy-5-(hydroxymethyl)tetrahydrofuran-2-yl]-9H-purin-2-yl}phenyl}-3-[4-(hydroxymethyl)phenyl]urea] | 0.0164 | 0.035 | 174 | 0.228
Nc1nc(-c2ccc(NC(=O)Nc3cccnc3)cc2)nc2c1ncn2[C@@H]1O[C@H](CO)[C@@H](O)[C@H]1O [Compound 1, 1-{4-{6-amino-9-[(2R,3R,4S,5R)-3,4-dihydroxy-5-(hydroxymethyl)tetrahydrofuran-2-yl]-9H-purin-2-yl}phenyl}-3-(pyridin-3-yl)urea] | 0.778 | 1.66 | 230 | –
